The assay concerns the target T1, human GPR119 (Homo sapiens, UniProt Q8TDV5).
T1 sequence (Q8TDV5 1-308 limits assumed): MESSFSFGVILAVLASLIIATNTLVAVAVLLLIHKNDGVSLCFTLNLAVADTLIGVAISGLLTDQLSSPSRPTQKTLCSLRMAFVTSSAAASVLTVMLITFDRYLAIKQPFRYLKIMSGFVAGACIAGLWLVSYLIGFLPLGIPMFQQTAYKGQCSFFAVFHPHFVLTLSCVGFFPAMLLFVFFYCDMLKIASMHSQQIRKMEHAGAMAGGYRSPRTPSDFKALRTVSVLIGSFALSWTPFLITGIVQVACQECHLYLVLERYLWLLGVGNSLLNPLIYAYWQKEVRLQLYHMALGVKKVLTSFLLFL
The assay can be described thus: Measurement of GPR119 signaling (cAMP assay) in cells stably transfected with human GPR119. The class given is cell-based. The note with it: cAMP stimulation, human GPR119, read-out: GPR119 Human EC50. The method, then: Measurement of GPR119 Signaling (Cyclic AMP (cAMP) Assay)
The adenylate cyclase assay was constructed following the LANCE™ cAMP Kit (Perkin Elmer, AD0264) instructions.
The reaction was stopped by incubating with the supplied detection buffer containing the europium chelate of the Eu-SA/Biotin-cAMP tracer for 3 hours. The assay was performed in duplicate in a 384 well plate for duplicate plates and fluorescence was measured at 665 nm. Basal activity was determined using a DMSO control and maximum response was defined as cAMP stimulation produced by an internal agonist control. Standard cAMP concentrations were assayed concurrently for conversion of fluorescence signal to cAMP level. The data was analyzed using 4-parameter curve fit in Microsoft Excel.
Measurement of GPR119 Signaling (cAMP Homogenous Time Resolved Fluorescence (HTRF) Assay)
Chinese hamster ovary (CHO) cell lines stably transfected with the permissive guanine nucleotide binding protein alpha 15 (Gα15) and murine GPR119 were maintained in DMEM media containing FBS, penicillin-streptomycin, puromycin, and G418 (geneticin). […] Agonist activation of the GPR119 receptor was measured in receptor transfected cells described above, treated with compounds of this invention, using a commercial homogenous time resolved fluorescence (HTRF) kit for measurement of cAMP (CisBio, Bedford, Mass.). The assay was performed in 96-well half-volume plates (murine) or 384-well plates (human) following the manufacturers instructions. Briefly, suspended cells were incubated with a dose titration of test compound at RT for 60 min, lysed, and incubated with HTRF reagents for an additional 60 min. The plate was read using an Envision multilabel reader (Perkin Elmer) adjusted to read time resolved fluorescence and the cAMP concentrations were extrapolated from a cAMP calibration curve. […] The concentration of test compound required to stimulate a half-maximal response (EC50), and efficacy as compared to an internal agonist control, was determined from a sigmoidal 4-parameter curve fit of the resulting plot of normalized activity versus compound concentration.

Like-named read-outs stand apart in the source and are kept apart here.

In general, EC50 refers to the midpoint of the concentration-response curve. With `CCS(=O)(=O)c1ccc(OCC[C@H]2C[C@H]2C2CCN(c3nc(COC)no3)CC2)cc1F` (stereo in doubt) [Example 15, 4-((1S,2R)-2-{2-[4-(ethylsulfonyl)-3-fluorophenoxy]ethyl}cyclopropyl)-1-[3-(methoxymethyl)-1,2,4-oxadiazol-5-yl]piperidine], the EC50 (stated in the example text) was 8.4 nM.
Still for that read-out and setting: for `COCc1noc(N2CCC([C@@H]3C[C@@H]3CCOc3ccc(S(C)(=O)=O)cc3F)CC2)n1` (stereo in doubt) [Example 220, 4-((1S,2R)-2-{2-[2-fluoro-4-(methylsulfonyl)phenoxy]ethyl}cyclopropyl)-1-[3-(methoxymethyl)-1,2,4-oxadiazol-5-yl]piperidine] the value was 0.9 nM; for `CC(C)COC(=O)N1CCC([C@H]2C[C@H]2CCOc2ccc(-n3cnnn3)cc2)CC1` [Example 1, isobutyl 4-((1R,2S)-2-(2-(4-(1H-tetrazol-1-yl)phenoxy)ethyl)cyclopropyl)piperidine-1-carboxylate], 1.6 nM; for `CC1(OC(=O)N2CCC([C@H]3C[C@H]3CCOc3ccc(-n4cnnn4)cc3)CC2)CC1` [Example 2, 1-methylcyclopropyl 4-((1R,2S)-2-(2-(4-(1H-tetrazol-1-yl)phenoxy)ethyl)cyclopropyl)piperidine-1-carboxylate], 1 nM.
In the case of `CC(C)(C)OC(=O)N1CCC([C@H]2C[C@H]2CCOc2ccc(-n3cnnn3)cc2)CC1` [Example 5], the EC50 (table column) came out at 7 nM.
Same read-out and setting: next, `CCOC(=O)N1CCC([C@H]2C[C@H]2CCOc2ccc(-n3cnnn3)cc2)CC1` [Example 6]: 2 nM; `CCCOC(=O)N1CCC([C@H]2C[C@H]2CCOc2ccc(-n3cnnn3)cc2)CC1` [Example 7]: 0.8 nM.
The same measure, in the same setting: for `O=C(OC1CCC1)N1CCC([C@H]2C[C@H]2CCOc2ccc(-n3cnnn3)cc2)CC1` [Example 8] the value was 1 nM; for `CC(C)(C)COC(=O)N1CCC([C@H]2C[C@H]2CCOc2ccc(-n3cnnn3)cc2)CC1` [Example 9], 15 nM; for `CC1(OC(=O)N2CCC([C@H]3C[C@H]3CCOc3ccc(-n4cnnn4)cc3)CC2)CCC1` [Example 10], 0.3 nM.
Still for that read-out and setting: for `CC(C)OC(=O)N1CCC([C@H]2C[C@H]2CCOc2ccc(-n3cnnn3)cc2)CC1` [Example 11] the value was 1.5 nM; for `O=C(OCc1ccccc1)N1CCC([C@H]2C[C@H]2CCOc2ccc(-n3cnnn3)cc2)CC1` [Example 12], 11.8 nM.
As to `CS(=O)(=O)c1ccc(OCC[C@@H]2C[C@@H]2C2CCN(C(=O)OCC3CC3)CC2)nc1` [Example 13, cyclopropylmethyl 4-((1R,2S)-2-(2-(5-(methylsulfonyl)pyridin-2-yloxy)ethyl)cyclopropyl)piperidine-1-carboxylate], the EC50 (stated in the example text) came to 0.3 nM.
For `CC(C)OC(=O)N1CCC([C@H]2C[C@H]2CCOc2ccc(S(C)(=O)=O)cn2)CC1` [Example 16], the EC50 (table column) came out at 46 nM.
As to `CC(C)(C)OC(=O)N1CCC([C@H]2C[C@H]2CCOc2ccc(S(C)(=O)=O)cn2)CC1` [Example 17], the EC50 (table column) was determined as 5.8 nM.
On the same count and under the same terms, for `CS(=O)(=O)c1ccc(OCC[C@@H]2C[C@@H]2C2CCN(C(=O)OC3CCC3)CC2)nc1` [Example 18] the value was 0.4 nM; for `CC(C)COC(=O)N1CCC([C@H]2C[C@H]2CCOc2ccc(S(C)(=O)=O)cn2)CC1` [Example 19], 12 nM.
Still for that read-out and setting: for `CCOC(=O)N1CCC([C@H]2C[C@H]2CCOc2ccc(S(C)(=O)=O)cn2)CC1` [Example 20] the value was 22 nM.
On the same count and under the same terms, next, `CC1(OC(=O)N2CCC([C@H]3C[C@H]3CCOc3ccc(S(C)(=O)=O)cn3)CC2)CCC1` [Example 21]: 0.6 nM.
For the molecule `CS(=O)(=O)c1ccc(OCC[C@@H]2C[C@@H]2C2CCN(C(=O)OCC3CCC3)CC2)nc1` [Example 22], the EC50 (table column) came to 5 nM.
Turning to `CC1(COC(=O)N2CCC([C@H]3C[C@H]3CCOc3ccc(S(C)(=O)=O)cn3)CC2)CC1` [Example 23], the EC50 (table column) was found to be 0.6 nM.
On the same count and under the same terms, next, `CC1(OC(=O)N2CCC([C@H]3C[C@H]3CCOc3ccc(S(C)(=O)=O)cn3)CC2)CC1` [Example 24]: 4.2 nM; `CCC1(OC(=O)N2CCC([C@H]3C[C@H]3CCOc3ccc(S(C)(=O)=O)cn3)CC2)CC1` [Example 25]: 2.2 nM; `CC1(COC(=O)N2CCC([C@H]3C[C@H]3CCOc3ccc(S(C)(=O)=O)cn3)CC2)CCC1` [Example 26]: 0.6 nM.
On the same count and under the same terms, next, `CCS(=O)(=O)c1ccc(OCC[C@@H]2C[C@@H]2C2CCN(C(=O)OC3(C)CC3)CC2)nc1` [Example 27]: 0.9 nM; `CCS(=O)(=O)c1ccc(OCC[C@@H]2C[C@@H]2C2CCN(c3nc(C(C)C)no3)CC2)cc1F` [Example 28]: 1.8 nM; `CCS(=O)(=O)c1ccc(OCC[C@@H]2C[C@@H]2C2CCN(c3nc(C(C)C)no3)CC2)cc1` [Example 29]: 7.7 nM.
As for `Cc1cc(-n2cnnn2)cnc1OCC[C@@H]1C[C@@H]1C1CCN(C(=O)OC2(C)CC2)CC1` [Example 30, 1-methylcyclopropyl 4-[(1R,2S)-2-(2-{[3-methyl-5-(1H-tetrazol-1 yl)pyridin-2-yl]oxy}ethyl)cyclopropyl]piperidine-1-carboxylate], where the note is “stated in the example text”, the EC50 was determined as 0.7 nM.
In the case of `Cc1cc(-n2cnnn2)cnc1OCC[C@@H]1C[C@@H]1C1CCN(C(=O)OCc2ccccc2)CC1` [Example 31], the EC50 (table column) is 2.8 nM.
Regarding `O=C(OCc1ccccc1)N1CCC([C@H]2C[C@H]2CCOc2ccc(-n3cnnn3)cn2)CC1` [Example 33], the EC50 (table column) was found to be 15 nM.
As to `CC1(OC(=O)N2CCC([C@H]3C[C@H]3CCOc3ccc(-n4cncn4)cn3)CC2)CC1` [Example 34, 1-methylcyclopropyl 4-[(1R,2S)-2-(2-{[5-(1H-1,2,4-triazol-1-yl)pyridin-2-yl]oxy}ethyl)cyclopropyl]piperidine-1-carboxylate], the EC50 (stated in the example text) stood at 0.88 nM.
On the same count and under the same terms, for `CC(C)(C)OC(=O)N1CCC([C@H]2C[C@H]2CCOc2ccc(S(C)(=O)=O)cc2)CC1` [Example 35, tert-butyl 4-((1R,2S)-2-{2-[4-(methylsulfonyl)phenoxy]ethyl}cyclopropyl) piperidine-1-carboxylate] the value was 0.9 nM.
Take `CCS(=O)(=O)c1ccc(OCC[C@@H]2C[C@@H]2C2CCN(C(=O)OC3(C)CC3)CC2)cc1` [Example 36]: the EC50 (table column) came out at 14.5 nM.
Same read-out and setting: for `CC1(OC(=O)N2CCC([C@H]3C[C@H]3CCOc3ccc(S(=O)(=O)C4CC4)cc3)CC2)CC1` [Example 37] the value was 16 nM; for `CC(C)(C)OC(=O)N1CCC([C@H]2C[C@H]2CCOc2cc(F)c(S(C)(=O)=O)c(F)c2)CC1` [Example 38], 12 nM; for `CC(C)OC(=O)N1CCC([C@H]2C[C@H]2CCOc2cc(F)c(S(C)(=O)=O)c(F)c2)CC1` [Example 39], 6.6 nM.
On the same count and under the same terms, for `CC(C)OC(=O)N1CCC([C@H]2C[C@H]2CCOc2ccc(S(C)(=O)=O)c(F)c2)CC1` [Example 40] the value was 2.3 nM; for `CC(C)(C)COC(=O)N1CCC([C@H]2C[C@H]2CCOc2ccc(S(C)(=O)=O)c(F)c2)CC1` [Example 41], 0.4 nM; for `CCS(=O)(=O)c1ccc(OCC[C@@H]2C[C@@H]2C2CCN(C(=O)OC3(C)CC3)CC2)cc1F` [Example 42], 2.5 nM.
Still for that read-out and setting: next, `CC1(OC(=O)N2CCC([C@H]3C[C@H]3CCOc3ccc(S(=O)(=O)C4CC4)c(F)c3)CC2)CC1` [Example 43]: 1 nM.
With `COC(=O)N1CCC([C@H]2C[C@H]2CCOc2cc(C#N)nc(C)n2)CC1` [Example 44], for the setting “stated in the example text”, the EC50 was 34 nM.
With `CCOC(=O)N1CCC([C@H]2C[C@H]2CCOc2cc(C#N)nc(C)n2)CC1` [Example 45], the 50% effective concentration (EC50) (table column) was found to be 3.6 nM.
Same read-out and setting: for `Cc1nc(C#N)cc(OCC[C@@H]2C[C@@H]2C2CCN(C(=O)OC(C)C)CC2)n1` [Example 46] the value was 1.2 nM; for `Cc1nc(C#N)cc(OCC[C@@H]2C[C@@H]2C2CCN(C(=O)OC(C)(C)C)CC2)n1` [Example 47], 0.2 nM.

The values above are taken from patent publication US8957062B2, “Substituted cyclopropyl compounds, compositions containing such compounds and methods of treatment” (Merck Sharp & Dohme Corp., priority 2011, dated 2015).
